{"source": "paper PMC3870039", "about": "(ACS chemical biology, 2013)", "biological_target": "human topoisomerase IIα (Homo sapiens, UniProt P11388)", "sequence (P11388 whole entry)": "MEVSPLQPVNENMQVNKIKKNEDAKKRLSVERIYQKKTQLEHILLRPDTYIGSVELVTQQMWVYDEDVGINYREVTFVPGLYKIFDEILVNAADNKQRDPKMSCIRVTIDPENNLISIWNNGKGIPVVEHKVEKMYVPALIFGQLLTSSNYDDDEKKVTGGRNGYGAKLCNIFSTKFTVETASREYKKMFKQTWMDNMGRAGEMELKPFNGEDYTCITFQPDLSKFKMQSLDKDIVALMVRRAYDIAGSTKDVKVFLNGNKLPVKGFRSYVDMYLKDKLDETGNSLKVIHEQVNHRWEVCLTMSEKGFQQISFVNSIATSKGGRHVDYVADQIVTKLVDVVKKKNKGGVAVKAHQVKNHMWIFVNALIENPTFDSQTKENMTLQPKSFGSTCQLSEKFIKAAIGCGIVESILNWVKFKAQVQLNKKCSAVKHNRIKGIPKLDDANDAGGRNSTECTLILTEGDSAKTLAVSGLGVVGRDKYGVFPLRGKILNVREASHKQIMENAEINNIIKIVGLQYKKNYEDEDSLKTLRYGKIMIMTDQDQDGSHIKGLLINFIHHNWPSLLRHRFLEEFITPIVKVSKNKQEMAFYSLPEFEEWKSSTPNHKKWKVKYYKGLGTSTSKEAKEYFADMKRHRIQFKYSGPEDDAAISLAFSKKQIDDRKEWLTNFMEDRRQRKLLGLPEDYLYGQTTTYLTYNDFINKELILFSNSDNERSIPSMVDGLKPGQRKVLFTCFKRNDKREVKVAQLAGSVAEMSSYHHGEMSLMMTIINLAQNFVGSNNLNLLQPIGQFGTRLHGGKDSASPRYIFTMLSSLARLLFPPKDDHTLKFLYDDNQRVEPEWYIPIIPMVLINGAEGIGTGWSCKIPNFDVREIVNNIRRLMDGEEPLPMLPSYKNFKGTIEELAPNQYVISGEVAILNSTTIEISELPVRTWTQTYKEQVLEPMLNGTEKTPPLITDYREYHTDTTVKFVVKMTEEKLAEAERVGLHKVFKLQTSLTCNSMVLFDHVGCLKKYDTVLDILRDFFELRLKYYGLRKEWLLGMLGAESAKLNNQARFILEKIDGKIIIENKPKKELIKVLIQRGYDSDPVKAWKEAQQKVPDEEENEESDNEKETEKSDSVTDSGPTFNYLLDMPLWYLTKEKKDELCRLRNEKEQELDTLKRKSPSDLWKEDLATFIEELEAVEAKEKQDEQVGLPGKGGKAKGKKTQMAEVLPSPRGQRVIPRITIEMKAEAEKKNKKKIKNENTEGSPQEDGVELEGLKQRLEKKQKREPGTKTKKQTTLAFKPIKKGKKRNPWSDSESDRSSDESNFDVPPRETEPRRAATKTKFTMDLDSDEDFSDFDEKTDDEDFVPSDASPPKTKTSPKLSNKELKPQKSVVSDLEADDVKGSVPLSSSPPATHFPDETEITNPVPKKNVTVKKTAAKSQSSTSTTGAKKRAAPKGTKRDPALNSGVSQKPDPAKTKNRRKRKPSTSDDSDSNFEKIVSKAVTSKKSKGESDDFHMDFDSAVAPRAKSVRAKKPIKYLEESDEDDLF", "experiment": "competition against DNA cleavage induced by […] 8-methyl-3′-", "format": "biochemical"}
{"smiles": "NCC1CCN(c2cc3c(cc2F)c(=O)c(C(=O)O)cn3C2CC2)C1", "note": "(stereo not shown) [8-H-3′-(AM)P-FQ]", "values": [{"measurement": "IC50", "result": "~50", "unit": "µM"}]}
